The text below walks through data of ChEMBL document CHEMBL1671849, “Novel, Broad Spectrum Anti-Cancer Agents Containing the Tricyclic 5:7:5-Fused Diimidazodiazepine Ring System” (ACS Med Chem Lett, 2011).

The test system of series [1] is A549. As to the kind of experiment: Cytotoxicity against human A549 cells after 72 hrs by WST1 assay. Format: functional, cell-based. Particulars: A549, 72 h. (In general: Tetrazolium dyes change colour on reduction, which living cells bring about.)
Series [2] has as its system NCI-H460. In words: Cytotoxicity against human H460 cells after 72 hrs by WST1 assay. Format: functional, cell-based. Conditions: NCI-H460, 72 h.
Series [3] relates to MCF7. In words: Cytotoxicity against human MCF7 cells after 72 hrs by WST1 assay. The series is classed as functional, cell-based. Conditions: MCF7, 72 h.
For series [4], the system named is MDA-MB-231. In words: Cytotoxicity against human MDA-MB-231 cells after 72 hrs by WST1 assay. The series is classed as functional, cell-based. Particulars: MDA-MB-231, 72 h.
The subject of series [5] is OVCAR-3. As to the kind of experiment: Cytotoxicity against human OVCAR3 cells after 72 hrs by WST1 assay. Particulars: OVCAR-3, 72 h. The series is classed as functional, cell-based.
The test system of series [6] is PC-3. As to the kind of experiment: Cytotoxicity against human PC3 cells after 72 hrs by WST1 assay. Format: functional, cell-based. Conditions: PC-3, 72 h.
The subject of series [7] is MCF7. In words: Cell cycle arrest in human MCF7 cells assessed as accumulation at G1 phase at 3 uM after 24 hrs by flow cytometry relative to control. The series is classed as functional. A general note: Flow cytometry measures light scatter and fluorescence of single cells or particles in a stream.
The subject of series [8] is MCF7. In words: Cell cycle arrest in human MCF7 cells assessed as accumulation at S phase at 3 uM after 24 hrs by flow cytometry relative to control. Format: functional.
Series [9] has as its system MCF7. In words: Cell cycle arrest in human MCF7 cells assessed as accumulation at G2/M phase at 3 uM after 24 hrs by flow cytometry relative to control. Format: functional.
In series [10] the test system is Mus musculus. In words: Toxicity in SCID mouse at up to 500 mg/kg administered twice week for 7 weeks. The series is classed as organism-based. The arrangement: dose 500 mg/kg. Conditions: in vivo, 1176 h.
Series [11] concerns Mus musculus. In words: Toxicity in SCID mouse assessed as histopathological examination of kidney at up to 500 mg/kg administered twice week for 7 weeks. Conditions: in vivo, 1176 h. Also noted: dose 500 mg/kg. The series is classed as organism-based.
Series [12] concerns Mus musculus. As to the kind of experiment: Toxicity in SCID mouse assessed as histopathological examination of spleen at up to 500 mg/kg administered twice week for 7 weeks. Also noted: dose 500 mg/kg. Conditions: in vivo, 1176 h. Format: organism-based.
Series [13] concerns Mus musculus. As to the kind of experiment: Toxicity in SCID mouse assessed as histopathological examination of liver at up to 500 mg/kg administered twice week for 7 weeks. The series is classed as organism-based. Also noted: dose 500 mg/kg. Conditions: in vivo, 1176 h.
For series [14], the system named is Mus musculus. As to the kind of experiment: Toxicity in SCID mouse assessed as histopathological examination of cerebellum-brain at up to 500 mg/kg administered twice week for 7 weeks. Conditions: in vivo, 1176 h. The series is classed as organism-based. The arrangement: dose 500 mg/kg.
For series [15], the system named is Mus musculus. In words: Toxicity in SCID mouse assessed as blood analysis at up to 500 mg/kg administered twice week for 7 weeks. Particulars: in vivo, 1176 h. Format: organism-based. The arrangement: dose 500 mg/kg.

The term IC50 denotes the concentration at which inhibition is half-maximal. Read a low IC50 as inhibition by little substance. In the case of `COc1ccc(Cn2cnc3c4nc(=O)n(Cc5ccccc5)c-4ncnc32)cc1`, the half-inhibitory concentration (IC50) in series [1] is 1700 nM; in series [2], 1800 nM; in [3] it was 7 µM; in series [4] it was 2300 nM; in [5], 5 µM; in [6] it was 4.05 µM.
Regarding `COc1ccc(Cn2c3nc(-c4ccc([N+](=O)[O-])cc4)nc4c(ncn4Cc4ccc(OC)cc4)c-3nc2=O)cc1`, the IC50 stood at 2700 nM in series [1]; 2500 nM in series [2]; 5.7 µM in series [3]; 3300 nM in series [4]; 5.2 µM in series [5]; 4.3 µM in series [6].
For `COc1ccc(Cn2c3ncnc4c(ncn4Cc4ccc(OC)cc4)c-3nc2=O)cc1`, the IC50 in series [1] was determined as 2500 nM; in series [2], 2800 nM; in [3], 7.5 µM; in series [4] it was 4010 nM; in series [5], 14.5 µM; in [6] it was 4.8 µM. The Activity in [7] is 79.15%; in series [8], 5.87%; in series [9], 14.5%; in [10] it was “Non-toxic”; in series [11], “Non-toxic”; in series [12], “Non-toxic”. Further, the Activity entry in series [13], in series [14] and in series [15] was “Non-toxic” in each case.
`COc1ccc(Cn2cnc3c4nc(=O)n(Cc5ccc(F)cc5)c-4ncnc32)cc1`: the half-inhibitory concentration (IC50) in [1] came to 1600 nM; in series [2], 1500 nM; in series [3] it was 4 µM; in [4], 2500 nM; in [5] it was 9 µM; in series [6], 2.1 µM.
As for `COc1ccc(Cn2cnc3c4nc(=O)n(Cc5cccc(OC)c5)c-4ncnc32)cc1`, the half-maximal inhibitory concentration (IC50) in [1] was 1500 nM; in series [2], 1600 nM; in series [3], 6 µM; in [4] it was 2600 nM; in [5] it was 5.1 µM; in series [6], 2.5 µM.
